Consider two compounds from ChEMBL document CHEMBL1147324, “The isolation and structure of modified bioactive nucleosides from Jaspis johnstoni” (J Nat Prod, 1989).

The structures appear in SMILES notation. Converted amounts (≈) assume the structure as drawn.

For assay [1], the system named is L1210. Put plainly: Antitumor activity against mouse L1210 cells implanted in mouse assessed as increase in survival. Type of assay: functional.
Assay [2] has as its system L1210. The experiment in a line: Cytotoxicity against mouse L1210 cells. Type of assay: functional, cell-based.
Assay [3] relates to Candida albicans. Put plainly: Antifungal activity against Candida albicans at 1.25 mg/6.4 mm disk. It is filed as functional.

In general, IC50 refers to the concentration needed to halve the response being measured. A higher IC50 goes with weaker potency. Consider `COC(=O)c1cn([C@@H]2O[C@H](CO)[C@@H](O)[C@H]2O)c2ncnc(N)c12`, for which the Activity in assay [1] is recorded as 39%. The same compound gave an IC50 in assay [2] of 0.027 µg/mL (≈ 0.0833 µM).

`N#Cc1cn([C@@H]2O[C@H](CO)[C@@H](O)[C@H]2O)c2ncnc(N)c12` [TOYOCAMYCIN]: the “inhibition zone (IZ)” value in assay [3] is on record as 13 mm. In assay [2], this compound came in with an IC50 of 0.0026 µg/mL (≈ 0.00893 µM).
